PMC5958115, “A novel small molecule chaperone of rod opsin and its potential therapy for retinal degeneration” (Nature Communications, 2018)

Legend:
C57BL/6 mice [1] = assay: Toxicity by daily i.p. injections, survival, behavior and body weight; type: in vivo; conditions: 200 and 100 mg kg^−1 bw daily i.p., day 14 to 38, vs DMSO
Method: To estimate the long-term toxicity of YC-001 in mice, we administered YC-001 to C57BL/6 mice by daily i.p. injections from Day 14 to 38 after birth with one of two doses, either 100 mg kg^−1 or 200 mg kg^−1 bw. Equivalent volumes of DMSO were injected into control groups. Body weights of treated mice were measured daily. Each dosage group contained three mice including males and females.

human clarin-1 N48K = target: T1, human clarin-1 N48K (Homo sapiens, UniProt P58418, N48K); assay: Image-based analysis of Clarin-1-N48K-Venus in HEK 293 cells; type: cell-based; conditions: 24 h
T1 construct: expressed in transfected cells
T1 sequence (P58418 whole entry N48K): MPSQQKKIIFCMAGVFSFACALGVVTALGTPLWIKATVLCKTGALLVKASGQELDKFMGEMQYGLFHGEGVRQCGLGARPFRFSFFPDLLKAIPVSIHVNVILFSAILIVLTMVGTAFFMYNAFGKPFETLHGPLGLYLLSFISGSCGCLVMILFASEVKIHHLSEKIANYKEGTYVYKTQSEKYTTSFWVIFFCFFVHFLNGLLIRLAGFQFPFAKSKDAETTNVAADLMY
Method: HEK 293 stable cells co-expressing human clarin-1 N48K-Venus fluorescent protein and DsRed-Express-DR fusion protein were obtained from Dr. Yoshikazu Imanishi at Case Western Reserve University (CWRU). Cells were cultured in DMEM medium with 10% FBS following guidelines from ATCC. To test effects of YC-001 treatments on clarin-1 N48K-Venus amounts in these cells, an image-based assay was performed. Briefly, cells were seeded at 20,000 cells per well in 40 µL per well DMEM medium with 10% FBS in a 384-well PerkinElmer View plate coated with poly-D-lysine and cultured at 37 °C with 5% CO2 for 24 h. Cells then were treated with 10 µL per well DMEM medium with 10% FBS containing 5× the final concentration of tested compounds. […] Each compound was tested with 10 doses in a twofold dilution series, featuring three biological replicates. The 384-well plate was put back for incubation at 37 °C with 5% CO2. After 24 h of exposure to test compounds, the plate was removed, and the medium was aspirated and replaced by 20 µL per well of 4% paraformaldehyde for fixation at RT for 20 min. […] Images were analyzed by the Columbus storage and analysis system (PerkinElmer). Hoechst33342 fluorescence images were used to define nuclei and count cells. […] YFP and DsRed fluorescence intensities per cell were measured in each well.

C57BL/6 mice [2] = assay: Retinoid cycle analysis: 11-cis-retinyl-oxime recovery after bleaching; type: in vivo, mouse; conditions: 200 mg kg^−1 bw i.p. 30 min before 10,000 lux 10 min; vs DMSO
Method: To test if treatment with YC-001 affects visual pigment regeneration, we quantified the 11-cis-retinyl-oxime extracted from retinas of C57BL/6 mice after different periods of dark adaptation following exposure to bright light. Mice at 6 weeks of age were administered YC-001 at 200 mg kg^−1 bw via i.p. injection. At 30 min following YC-001 administration, eyes were dilated with 1% tropicamide. Mice then were anesthetized with a cocktail containing 20 mg mL^−1 of ketamine and 1.75 mg mL^−1 of xylazine at a dose of 4 μL g^−1 bw. Anesthetized mice were exposed to bright light with an intensity of 10,000 lux for 10 min to bleach about 90% of the rhodopsin pigment. Mice then were returned to the dark for recovery. Animals then were euthanized at 0, 2, 4, 6 or 24 h after bleaching and recovery in the dark, and their eyes were removed and homogenized in 1 mL of 1:1 PBS:ethanol mixture (v/v) containing 40 mM hydroxylamine. […] 11-cis-Retinyl-oxime released from the regenerated rhodopsin pigments were separated on an Agilent Sil column (5 µm, 4.6 × 250 mm) with an isocratic flow of 10% ethyl acetate in hexanes (1.5 mL min^−1) and detected at 325 nm. Amounts of 11-cis-retinyl-oximes per eye were quantified by normalizing the peak area to an 11-cis-retinyl-oxime standard. 11-cis-Retinyl-oximes were quantified in three eye samples per condition, and the means and s.d.s were calculated.

[3] = design: method as in PubChem database, CID 2377702; conditions: ref PubChem database, CID 2377702; cited from earlier work

Compound: O=C1OCC(c2ccc(Cl)s2)=C1c1cccs1 [YC-001]
- behavioral or bw growth changes (C57BL/6 mice [1]): no obvious behavioral or bw growth changes
- effect on amount or stability of the clarin-1 N48K mutant (human clarin-1 N48K): did not affect the amount or stability
- recovery of 11-cis-retinyl-oxime after bleaching (C57BL/6 mice [2]): little difference
- activity in 8 other bioassays [3]: no known activities
